Earlier results, collected in patent publication US5723491A, “Fungicidal composition and method of controlling fungus infestation” (Novartis Corporation, priority 1994, dated 1998).
Where two headings read alike, the source gives them in different places.

Conditions: cited from earlier work

Row | SMILES | DT-50 (hydrolytic half-life) (20° C., pH1) | DT-50 (hydrolytic half-life) (20° C., pH9) | DT-50 (hydrolytic half-life) (pH9.25)
1 | COC(=O)C(C)N(C(=O)c1ccco1)c1c(C)cccc1C (racemic) [Furalaxyl, N-(2,6-dimethylphenyl)-N-(2-furanylcarbonyl)-DL-alanine methyl ester] | > 200 days | > 200 days | –
2 | COC(=O)C(C)N(C(=O)Cc1ccccc1)c1c(C)cccc1C (racemic) [Benalaxyl, N-(2,6-dimethylphenyl)-N-(phenylacetyl)-DL-alanine methyl ester] | – | – | 86 days
